Results taken from ChEMBL document CHEMBL1201862, “PubChem BioAssay data set” (2004).
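Interpolation was linear, between the two tested concentrations surrounding the appropriate level; five concentrations were tested over 48 hours in 96-well plates. The concentration for 50% growth inhibition is given as GI50.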 Activity calls are given as the source filed them. No stated cut-off is given here; in the data, active = GI50 up to about 1.1 µM and inactive = higher.

Legend:
Experiment in all cases: NCI anticancer screen, dose series, 48 h
MDA-MB-231 = tested on: MDA-MB-231
SNB-19 = tested on: SNB-19
HOP-18 = tested on: HOP-18
HCC 2998 = tested on: HCC 2998
SNB-78 = tested on: SNB-78
K562 = tested on: K562
IGROV-1 = tested on: IGROV-1
MOLT-4 = tested on: MOLT-4
RXF 631 = tested on: RXF 631
OVCAR-3 = tested on: OVCAR-3
DLD-1 = tested on: DLD-1
CCRF-CEM = tested on: CCRF-CEM
NCI-H23 = tested on: NCI-H23
MDA-MB-435 = tested on: MDA-MB-435
SR = tested on: SR
KM-20L2 = tested on: KM-20L2
UO-31 = tested on: UO-31
DMS-114 = tested on: DMS-114
COLO 205 = tested on: COLO 205
SF-539 = tested on: SF-539
SN12C = tested on: SN12C
NCI-H522 = tested on: NCI-H522
BT-549 = tested on: BT-549
HT-29 = tested on: HT-29
SK-MEL-5 = tested on: SK-MEL-5
SK-MEL-28 = tested on: SK-MEL-28
DU-145 = tested on: DU-145
HL-60 = tested on: HL-60
LXFL 529 = tested on: LXFL 529
RPMI-8226 = tested on: RPMI-8226
NCI-H460 = tested on: NCI-H460
SW-620 = tested on: SW-620
HCT-15 = tested on: HCT-15
HOP-62 = tested on: HOP-62
ACHN = tested on: ACHN
UACC-62 = tested on: UACC-62
NCI-H226 = tested on: NCI-H226
XF498 = tested on: XF498
786-0 = tested on: 786-0
NCI/ADR-RES = tested on: NCI/ADR-RES
KM12 = tested on: KM12
TK-10 = tested on: TK-10
Hs-578T = tested on: Hs-578T
Malme-3M = tested on: Malme-3M
A549 = tested on: A549
HOP-92 = tested on: HOP-92
OVCAR-5 = tested on: OVCAR-5
SF-268 = tested on: SF-268
U-251 = tested on: U-251
SF-295 = tested on: SF-295
DMS-273 = tested on: DMS-273
RXF 393 = tested on: RXF 393
A498 = tested on: A498
MDA-N = tested on: MDA-N
EKVX = tested on: EKVX
PC-3 = tested on: PC-3
HCT-116 = tested on: HCT-116
SK-OV-3 = tested on: SK-OV-3
OVCAR-4 = tested on: OVCAR-4
LOX IMVI = tested on: LOX IMVI
SK-MEL-2 = tested on: SK-MEL-2
CAKI-1 = tested on: CAKI-1
MCF7 = tested on: MCF7
UACC-257 = tested on: UACC-257
SNB-75 = tested on: SNB-75
OVCAR-8 = tested on: OVCAR-8
M19-MEL = tested on: M19-MEL
M14 = tested on: M14

`CCCC(O)[C@@]1(CC)CC(C)C(O)(C2(C)C[C@H](C)[C@@H](C(CC)C(=O)C(C)[C@@H](O)[C@H](C)C3OC(O)(C(CC)C(=O)O)[C@@H](C)C(O)C3CC)O2)O1` (stereo partly drawn) was tested, and the GI50 (MDA-MB-231) was 492 nM (active), the GI50 (SNB-19) was 279 nM (active) and the GI50 (HOP-18) was 8590 nM (inactive). The GI50 (HCC 2998) was 89.7 nM (active), the GI50 (SNB-78) was 2760 nM (inactive) and the GI50 (K562) was 95.5 nM (active). The GI50 (IGROV-1) was 1240 nM (inactive), the GI50 (MOLT-4) was 449 nM (active) and the GI50 (RXF 631) was < 33.3 nM (active). For the same molecule, the GI50 (OVCAR-3) was 73.3 nM (active), the GI50 (DLD-1) was 841 nM (active) and the GI50 (CCRF-CEM) was 32.4 nM (active). The GI50 (NCI-H23) was 129 nM (active), the GI50 (MDA-MB-435) was 151 nM (active) and the GI50 (SR) was < 10 nM (active). The GI50 (KM-20L2) was 276 nM (active), the GI50 (UO-31) was 1010 nM (active) and the GI50 (DMS-114) was 27.9 nM (active). The GI50 (COLO 205) was 123 nM (active), the GI50 (SF-539) was 56 nM (active) and the GI50 (SN12C) was 120 nM (active). The GI50 (NCI-H522) was 21.1 nM (active), the GI50 (BT-549) was 51.2 nM (active) and the GI50 (HT-29) was 557 nM (active). For the same molecule, the GI50 (SK-MEL-5) was 219 nM (active), the GI50 (SK-MEL-28) was 490 nM (active) and the GI50 (DU-145) was 88.5 nM (active). For the same molecule, the GI50 (HL-60) was 22.8 nM (active), the GI50 (LXFL 529) was 594 nM (active) and the GI50 (RPMI-8226) was 98.9 nM (active). The GI50 (NCI-H460) was 191 nM (active), the GI50 (SW-620) was 776 nM (active) and the GI50 (HCT-15) was 1160 nM. The GI50 (HOP-62) was 369 nM (active), the GI50 (ACHN) was 521 nM (active) and the GI50 (UACC-62) was 923 nM (active). For the same molecule, the GI50 (NCI-H226) was 1100 nM (active), the GI50 (XF498) was 1190 nM (inactive) and the GI50 (786-0) was 414 nM (active). For the same molecule, the GI50 (NCI/ADR-RES) was 79.2 nM (active), the GI50 (KM12) was 451 nM (active) and the GI50 (TK-10) was 527 nM (active). The GI50 (Hs-578T) was 267 nM (active), the GI50 (Malme-3M) was 98.2 nM (active) and the GI50 (A549) was 123 nM (active). The GI50 (HOP-92) was 300 nM (active), the GI50 (OVCAR-5) was 1510 nM (inactive) and the GI50 (SF-268) was 284 nM (active). For the same molecule, the GI50 (U-251) was 184 nM (active), the GI50 (SF-295) was 753 nM (active) and the GI50 (DMS-273) was 290 nM (active). The GI50 (RXF 393) was 86.3 nM (active), the GI50 (A498) was 412 nM (active) and the GI50 (MDA-N) was 414 nM (active). The GI50 (EKVX) was 395 nM (active), the GI50 (PC-3) was 72.3 nM (active) and the GI50 (HCT-116) was 187 nM (active). The GI50 (SK-OV-3) was 2150 nM (inactive), the GI50 (OVCAR-4) was 594 nM (active) and the GI50 (LOX IMVI) was 190 nM (active). For the same molecule, the GI50 (SK-MEL-2) was 531 nM (active), the GI50 (CAKI-1) was 486 nM (active) and the GI50 (MCF7) was 461 nM (active). For the same molecule, the GI50 (UACC-257) was 138 nM (active), the GI50 (SNB-75) was 61.1 nM (active) and the GI50 (OVCAR-8) was 444 nM (active). The GI50 (M19-MEL) was 643 nM (active) and the GI50 (M14) was 557 nM (active).
